Laboratory results taken from article PMC8624998, “Synthesis and Antiproliferative Evaluation of 3-Chloroazetidin-2-ones with Antimitotic Activity: Heterocyclic Bridged Analogues of Combretastatin A-4” (Pharmaceuticals, 2021).

Test system: microtubule network of MCF-7 cells
Assay: Immunofluorescence (confocal) of microtubule network
Assay type: cell-based, human
Details: MCF-7, 16 h; 10n 0.05, 0.1, 0.5 μM; CA-4 10 nM; paclitaxel 1 μM
Procedure: Subsequently, the effect of the representative compound 10n on the organisation of microtubule cytoskeleton of MCF-7 cells was also determined by confocal microscopy using an anti-tubulin antibody (Figure 8). […] The MCF-7 cell nuclei (stained blue) were also clearly observed (Figure 8A). […] The treatment of MCF-7 breast cancer cells with CA-4 tubulin-targeting agents has been reported to result in the formation of multiple micronuclei and mitotic catastrophes.
Confocal microscopy was used to study the effects on MCF-7 cytoskeleton following treatment with compound 10n following the protocols previously reported. For each experiment, all images were collected on the same day using identical parameters. MCF-7 cells were seeded (1 × 10^5 cells/mL) on eight chamber glass slides. Cells were either untreated or treated with vehicle (1% ethanol (v/v)), CA-4 (10 nM), Paclitaxel (1 μM) and β-lactam compound 10n at 50 nM, 100 nM and 500 nM concentrations for 16 h. The cells were then gently washed in PBS and then fixed for 30 min with 100% ice-cold MeOH. Cells were washed three times in PBS for 10 min and then permeabilised in 0.5% Triton X-100. The cells were subsequently washed in PBS containing 0.1% Tween (PBST), and then blocked in bovine serum albumin (5%) diluted in PBST. Cells were then incubated with a mouse monoclonal anti-α-tubulin−FITC antibody (clone DM1A) (1:200) for 2 h at 20 °C. Following washes in PBST, cells were incubated with Alexa Fluor 488 dye (1:500) for 1 h at 20 °C. Following further washes in PBST, the cells were mounted in Ultra Cruz Mounting Media, which contained 4,6-diamino-2-phenolindol dihydrochloride (DAPI). The images were photographed using Leica SP8 confocal microscopy with the Leica application suite X software program. Experiments were performed on three independent occasions.
Figure 8 Compound 10n depolymerises the microtubule network of MCF-7 breast cancer cells. Cells were treated with (A) vehicle control ([…]), (B) CA-4 (10 nM), (C) paclitaxel (1 μM) and compound 10n, (D) (50 nM), (E) (100 nM) and (F) (500 nM) for 16 h. […]

## CC(=O)O[C@H]1C(=O)[C@@]2(C)[C@H]([C@H](OC(=O)c3ccccc3)[C@]3(O)C[C@H](OC(=O)[C@H](O)[C@@H](NC(=O)c4ccccc4)c4ccccc4)C(C)=C1C3(C)C)[C@]1(OC(C)=O)CO[C@@H]1C[C@@H]2O [paclitaxel]
  effect on microtubule network: hyper-polymerisation of tubulin
